Test results from PubChem BioAssay (NCI).
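Step 1: Grow cells in 96-well plates. Step 2: Expose to compound for 48 hours at 5 concentrations. Step 3: Interpolate endpoints linearly; if unreached, use highest concentration. GI50: concentration for 50% inhibition of growth. The concentration for full growth arrest is given as TGI.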

Key:
Assay in all cases: NCI-60 cell line screen, 48 h
786-0 renal = tested on: 786-0 renal
A498 renal = tested on: A498 renal
A549 NSCLC = tested on: A549 NSCLC
ACHN renal = tested on: ACHN renal
BT-549 breast = tested on: BT-549 breast
CAKI-1 renal = tested on: CAKI-1 renal
CCRF-CEM leukemia = tested on: CCRF-CEM leukemia
COLO 205 colon = tested on: COLO 205 colon
DU-145 prostate = tested on: DU-145 prostate
EKVX NSCLC = tested on: EKVX NSCLC
HCC-2998 colon = tested on: HCC-2998 colon
HCT-116 colon = tested on: HCT-116 colon
HCT-15 colon = tested on: HCT-15 colon
HL-60(TB) leukemia = tested on: HL-60(TB) leukemia
HOP-62 NSCLC = tested on: HOP-62 NSCLC
HOP-92 NSCLC = tested on: HOP-92 NSCLC
HS 578T breast = tested on: HS 578T breast
IGROV1 ovarian = tested on: IGROV1 ovarian
K-562 leukemia = tested on: K-562 leukemia
KM12 colon = tested on: KM12 colon
M14 melanoma = tested on: M14 melanoma
MALME-3M melanoma = tested on: MALME-3M melanoma
MDA-MB-231 breast = tested on: MDA-MB-231 breast
MDA-MB-435 = tested on: MDA-MB-435
MDA-MB-468 breast = tested on: MDA-MB-468 breast
MOLT-4 leukemia = tested on: MOLT-4 leukemia
NCI-H226 lung = tested on: NCI-H226 lung

Which GI50 (786-0 renal) does the source give for COC(=O)C[C@](O)(CCC(C)C)C(=O)O[C@@H]1C(OC)=C[C@]23CCCN2CCc2cc4c(cc2[C@H]13)OCO4 here?
The GI50 was 104 nM.

What about the TGI (786-0 renal) of the same compound?
Its TGI is 544 nM.

And the GI50 (A498 renal)?
The GI50 was 17.3 nM.

And the TGI (A498 renal)?
The TGI was 163 nM.

And the GI50 (A549 NSCLC)?
The GI50 was 52.1 nM.

And the TGI (A549 NSCLC)?
Its TGI is 10700 nM.

What about the GI50 (ACHN renal) of the same compound?
The GI50 was 40.2 nM.

And the TGI (ACHN renal)?
Its TGI is 272 nM.

What about the GI50 (BT-549 breast) of the same compound?
Its GI50 is 90.7 nM.

What about the TGI (BT-549 breast) of the same compound?
Its TGI is 412 nM.

And the GI50 (CAKI-1 renal)?
Its GI50 is 179 nM.

What about the TGI (CAKI-1 renal) of the same compound?
Its TGI is 988 nM.

What about the GI50 (CCRF-CEM leukemia) of the same compound?
The GI50 was 34.4 nM.

And the TGI (CCRF-CEM leukemia)?
The TGI was 431 nM.

And the GI50 (COLO 205 colon)?
The GI50 was 91.6 nM.

And the TGI (COLO 205 colon)?
Its TGI is 397 nM.

What about the GI50 (DU-145 prostate) of the same compound?
Its GI50 is 145 nM.

And the TGI (DU-145 prostate)?
The TGI was 645 nM.

And the GI50 (EKVX NSCLC)?
The GI50 was 116 nM.

What about the TGI (EKVX NSCLC) of the same compound?
Its TGI is 775 nM.

What about the GI50 (HCC-2998 colon) of the same compound?
Its GI50 is 26.9 nM.

What about the TGI (HCC-2998 colon) of the same compound?
The TGI was 129 nM.

What about the GI50 (HCT-116 colon) of the same compound?
The GI50 was 36.3 nM.

And the TGI (HCT-116 colon)?
Its TGI is 1050 nM.

And the GI50 (HCT-15 colon)?
Its GI50 is 36.4 nM.

And the TGI (HCT-15 colon)?
Its TGI is 1270 nM.

And the GI50 (HL-60(TB) leukemia)?
The GI50 was 14.3 nM.

And the TGI (HL-60(TB) leukemia)?
The TGI was 65.5 nM.

What about the GI50 (HOP-62 NSCLC) of the same compound?
The GI50 was 244 nM.

And the TGI (HOP-62 NSCLC)?
Its TGI is 1480 nM.

And the GI50 (HOP-92 NSCLC)?
Its GI50 is 208 nM.

What about the TGI (HOP-92 NSCLC) of the same compound?
Its TGI is 724 nM.

And the GI50 (HS 578T breast)?
The GI50 was 138 nM.

What about the TGI (HS 578T breast) of the same compound?
The TGI was 545 nM.

And the GI50 (IGROV1 ovarian)?
The GI50 was 64.7 nM.

What about the TGI (IGROV1 ovarian) of the same compound?
Its TGI is 525 nM.

What about the GI50 (K-562 leukemia) of the same compound?
Its GI50 is 28.9 nM.

What about the TGI (K-562 leukemia) of the same compound?
The TGI was 116 nM.

And the GI50 (KM12 colon)?
The GI50 was 56.8 nM.

And the TGI (KM12 colon)?
Its TGI is 546 nM.

And the GI50 (M14 melanoma)?
The GI50 was 50.4 nM.

What about the TGI (M14 melanoma) of the same compound?
The TGI was 196 nM.

And the GI50 (MALME-3M melanoma)?
The GI50 was 20.1 nM.

What about the TGI (MALME-3M melanoma) of the same compound?
Its TGI is 68.4 nM.

And the GI50 (MDA-MB-231 breast)?
Its GI50 is 247 nM.

What about the TGI (MDA-MB-231 breast) of the same compound?
Its TGI is 690 nM.

What about the GI50 (MDA-MB-435) of the same compound?
The GI50 was 101 nM.

What about the TGI (MDA-MB-435) of the same compound?
Its TGI is 351 nM.

What about the GI50 (MDA-MB-468 breast) of the same compound?
Its GI50 is 25.5 nM.

And the TGI (MDA-MB-468 breast)?
Its TGI is 115 nM.

What about the GI50 (MOLT-4 leukemia) of the same compound?
The GI50 was 20.2 nM.

And the TGI (MOLT-4 leukemia)?
The TGI was 140 nM.

And the GI50 (NCI-H226 lung)?
Its GI50 is 31.7 nM.

What about the TGI (NCI-H226 lung) of the same compound?
The TGI was 351 nM.
